Source: publication PMC3715890, “A Cyclic Peptide Inhibitor of HIF-1 Heterodimerization That Inhibits Hypoxia Signaling in Cancer Cells” (Journal of the American Chemical Society, 2013)
“Also recorded” adds a separate entry of the source.

How the values were obtained:
[1] = test system: HIF-2 (HIF-dependent luciferase reporter, U2OS cells); assay: HIF-2 luciferase reporter assay, U2OS; type: cell-based, human; details: transfected HIF-2α
Source text: In addition, P1 had no effect on VEGF protein levels in hypoxic 786-O cells (Figure 6B). To further probe the effect of P1 on HIF-2, a luciferase reporter assay was developed and used. The assay was derived from the HIF-1 luciferase reporter assay detailed above (Figure 2C and D) and adapted for HIF-2 by replacing the plasmid encoding HIF-1α with the equivalent plasmid encoding HIF-2α. […] P2 and P3 also had no effect on HIF-2 in this assay (Figure S9).
Endogenous HIF-1 luciferase reporter assays were conducted as previously reported in U2OS-HRE-luc[15] and MCF-7 cells.[46] For plasmid-expressed HIF-α luciferase reporter assays, MCF-7 and U2OS cells were transiently transfected with plasmids expressing HIF-1α, HIF-2α, or a blank control (pcDNA3.1-HIF-1α, pcDNA3.1-HIF-2α, or pcDNA3.1), a renilla-encoding control (phRL-TK), and a HIF-dependent firefly luciferase reporter construct (pGL2-TK-HRE), using Transfast (Promega) according to the manufacturer’s instructions. After 24 h, cells were recovered and plated (4000 cells/well) in 96-well plates (Perkin-Elmer) and incubated for 5 h before either hypoxic or aerobic incubation in presence or absence of cyclic peptide inhibitors. Firefly and renilla activities were determined using Dual-Glo Reagent (Promega) according to the manufacturer’s instructions. The luciferase signal was normalized using the corresponding renilla values.

[2] = test system: tubule formation in hypoxic human umbilical vein endothelial cells (HUVEC); assay: HUVEC tubularization; type: cell-based; details: 250 μM
[3] = target: T1, His-HIF-1α1–350 with GST-HIF-1β1–474 (Homo sapiens, UniProt Q16665); assay: ELISA of HIF-1 dimerization; type: biochemical; details: pH 7.5, 30 min preincubation, room temperature
T1 construct: heterodimerization of His-HIF-1α1–350 with GST-HIF-1β1–474 analyzed by ELISA; made in house; host or cells: E. coli BL21(DE3)
Source text: We next probed the effect of cyclo-CLLFVY on the interaction of HIF-1α with HIF-1β in vitro. […] Unfortunately, the positively charged Tat-tag of P1 is incompatible with EMSA (interferes with the bandshift of DNA). […] To determine the HIF-1-specificity of cyclo-CLLFVY, we assessed its ability to disrupt HIF-2 dimerization by ELISA. Recombinant His-HIF-2α1–351 was produced and purified, and shown to form functional heterodimers with GST-HIF-1β1–474 by EMSA (Figure S5B).
HIF-1β1-474, *please note that isoform 3 of HIF-1β was used). The standard protocol for protein expression was followed. Briefly, a 1 % culture in LB was incubated at 37 °C with shaking until OD600 of 0.6 was reached. 0.1 mM IPTG was added and the liquid culture incubated with shaking at 18 °C overnight. Cell pellets were suspended in MHW buffer9 (approximately 4 ml buffer per 1 g cell pellet). Lysozyme (100 µg/ml) was added to the lysate and the solution was incubated with shaking for 20 min at 5 °C. […]
glycerol) was added to individual wells of a Pierce Ni2+-coated 96-well plate (Thermo Scientific, catalogue no. […] The stated quantity of inhibitor (P1 or P2) was added as a solution in 100 µL of buffer to the desired wells, and the plate incubated at room temperature for 30 minutes. […]

How did the “effect on HIF-2 luciferase reporter signal” value [1] turn out when “Tat-cyclo-CRLMVL (head to tail) [P2, cyclo-CRLMVL tagged with Tat peptide via a disulfide bond; used as negative control]” was run?
The value was “do not affect”.

And the “HUVEC tubularization / tubule length” value [2]?
The value was “has no effect”.

And the “effect on HIF-1 dimerization” value [3]?
Its value is “does not disrupt HIF-1 dimerization; also recorded: had no effect on HIF-1 dimerization”.
